These results are taken from patent US7265103B2, “Substituted amino isoxazoline derivatives and their use as anti-depressants” (Janssen Pharmaceutica NV., priority 2002, dated 2007).

For one series, the target named is T1, hα2A receptor (Homo sapiens, UniProt P08913).
T1 construct: expressed in transfected cells; host or cells: CHO cells
T1 sequence (P08913 1-465): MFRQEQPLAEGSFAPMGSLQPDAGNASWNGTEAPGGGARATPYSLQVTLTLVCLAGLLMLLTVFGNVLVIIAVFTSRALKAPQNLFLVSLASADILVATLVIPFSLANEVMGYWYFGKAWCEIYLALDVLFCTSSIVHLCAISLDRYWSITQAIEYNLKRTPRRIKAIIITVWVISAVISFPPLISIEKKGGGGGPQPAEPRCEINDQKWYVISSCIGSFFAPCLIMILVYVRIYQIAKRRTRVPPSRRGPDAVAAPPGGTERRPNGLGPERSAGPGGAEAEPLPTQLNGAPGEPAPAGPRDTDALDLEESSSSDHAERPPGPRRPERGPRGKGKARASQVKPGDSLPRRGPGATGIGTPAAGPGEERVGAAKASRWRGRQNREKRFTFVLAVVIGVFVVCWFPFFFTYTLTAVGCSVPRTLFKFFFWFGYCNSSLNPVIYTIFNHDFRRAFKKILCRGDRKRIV
Nature of the series: Radioligand binding experiment for α2A-adrenergic receptor ([3H]-raulwolscine). Particulars: CHO cell membranes with human α2A receptor, [3H]raulwolscine 1 nM; read-out: pIC50 α2A (converted). The method in brief:
(§1)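 Membranes from CHO cells stably expressing human α2A or α2C receptors (sodium butyrate-induced) incubated with 1 nM [3H]raulwolscine in 25 mM glycylglycine pH 8.0 for 60 min at 25° C, then filtered. Non-specific binding defined with 1 μM oxymetazoline (α2A) or 1 μM spiroxatrine (α2C); pIC50 from sigmoidal competition curves.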

For another series, the target named is T2, hα2C receptor (Homo sapiens, UniProt P18825).
T2 construct: expressed in transfected cells; host or cells: CHO cells
T2 sequence (P18825 1-462): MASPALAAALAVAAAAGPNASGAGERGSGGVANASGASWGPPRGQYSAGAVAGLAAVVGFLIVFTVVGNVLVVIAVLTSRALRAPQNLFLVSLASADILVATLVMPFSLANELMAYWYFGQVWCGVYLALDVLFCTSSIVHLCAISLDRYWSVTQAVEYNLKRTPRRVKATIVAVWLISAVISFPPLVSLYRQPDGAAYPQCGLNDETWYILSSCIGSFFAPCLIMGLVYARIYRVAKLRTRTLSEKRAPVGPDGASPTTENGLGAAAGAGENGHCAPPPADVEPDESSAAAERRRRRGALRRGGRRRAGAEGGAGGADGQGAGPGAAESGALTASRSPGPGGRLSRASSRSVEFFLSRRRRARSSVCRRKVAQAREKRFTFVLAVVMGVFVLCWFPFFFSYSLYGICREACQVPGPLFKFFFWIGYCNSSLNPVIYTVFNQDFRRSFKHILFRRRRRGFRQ
Nature of the series: Radioligand binding experiment for α2C-adrenergic receptor ([3H]-raulwolscine). Particulars: CHO cell membranes with human α2C receptor, [3H]raulwolscine 1 nM; read-out: pIC50 α2C (converted). The method in brief:
as §1

For the next series, the target named is T3, h5-HT transporter (Homo sapiens, UniProt P31645).
T3 construct: Human platelet membranes (Oceanix Biosciences Corporation, Hanover, Md., USA) were thawed; tissue Oceanix Biosciences Corporation; host or cells: human platelet membranes
T3 sequence (P31645 whole entry): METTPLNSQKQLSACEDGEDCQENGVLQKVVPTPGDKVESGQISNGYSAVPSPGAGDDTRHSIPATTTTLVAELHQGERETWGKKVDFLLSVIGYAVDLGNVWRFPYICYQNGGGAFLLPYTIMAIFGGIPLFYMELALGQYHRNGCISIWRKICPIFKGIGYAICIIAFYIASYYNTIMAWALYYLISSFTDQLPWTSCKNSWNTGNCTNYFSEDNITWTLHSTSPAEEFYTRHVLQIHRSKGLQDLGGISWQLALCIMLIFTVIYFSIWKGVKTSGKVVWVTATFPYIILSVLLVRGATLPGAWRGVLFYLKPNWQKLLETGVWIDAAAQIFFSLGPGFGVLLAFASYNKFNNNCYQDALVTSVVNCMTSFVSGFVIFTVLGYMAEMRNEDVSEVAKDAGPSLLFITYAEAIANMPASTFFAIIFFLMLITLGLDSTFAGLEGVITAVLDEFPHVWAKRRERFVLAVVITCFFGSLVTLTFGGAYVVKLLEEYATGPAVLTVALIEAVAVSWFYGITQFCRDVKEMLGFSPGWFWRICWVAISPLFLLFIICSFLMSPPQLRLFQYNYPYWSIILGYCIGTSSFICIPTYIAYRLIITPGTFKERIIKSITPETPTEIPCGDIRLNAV
Put plainly: Radioligand binding experiment for 5-HT transporter ([3H]paroxetine). As to conditions: human platelet membranes, [3H]paroxetine 0.5 nM. The method in brief:
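Competition binding on human platelet membranes (50-100 μg protein) in 50 mM Tris-HCl, 120 mM NaCl, 5 mM KCl with 0.5 nM [3H]paroxetine, 60 min at 25 °C, filtration and scintillation counting. Non-specific binding defined with 1 μM imipramine; pIC50 from nonlinear sigmoidal fits of percent total binding.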

A value given as a limit tells only on which side of the number the result lay.

Broadly, the melting point is the temperature, or range, at which the solid turns liquid.

With `CC(=Cc1ccccc1)CN1CCN(CC2ON=C3c4ccc(NC(=O)Nc5ccccc5)cc4OCC32)CC1` (stereo not drawn) [Compound 64], the melting point lay in the range of 180.3 to 181.6 °C. The IC50 at hα2A receptor was 25.1 nM. At hα2C receptor, the IC50 is 15.8 nM. For the same compound, the IC50 at h5-HT transporter was 251 nM.
In the same order, the values of `CC(=Cc1ccccc1)CN1CCN(CC2ON=C3c4ccc(Nc5ccc(C)c(C)c5)cc4OCC32)CC1` (stereo not drawn) [Compound 46] are 138.9 to 151.3 °C, 63.1 nM, 39.8 nM and 316 nM.
In the same order, the values of `C/C(=C\c1ccc(F)cc1)CN1CCN(CC2ON=C3c4cc5c(cc4OCC32)NCCO5)CC1` (stereo not drawn) [Compound 90] are 160.6 to 172.2 °C, 15.8 nM, 1.58 nM and 15.8 nM.
Compound `CC(=Cc1ccccc1)CN1CCN(CC2ON=C3c4ccc(Nc5ccccc5C)cc4OCC32)CC1` (stereo not drawn) [Compound 45] returned a melting point of 133.3 to 148.9 °C. For the same compound, the IC50 at hα2A receptor is 20 nM. Moreover, the IC50 at hα2C receptor was 20 nM. On h5-HT transporter, the IC50 was 79.4 nM.
As to `CC(=Cc1ccccc1)CN1CCN(CC2ON=C3c4ccc(N(S(C)(=O)=O)S(C)(=O)=O)cc4OCC32)CC1` (stereo not drawn) [Compound 66], the melting point is 201.8 to 202.9 °C. Besides, the IC50 on hα2A receptor was 5.01 nM. On hα2C receptor, the IC50 is 0.501 nM. Besides, the IC50 on h5-HT transporter was 39.8 nM.
The compound `CC(=Cc1ccccc1)CN1CCN(CC2ON=C3c4ccc(Nc5ccccc5)cc4OCC32)CC1` (stereo not drawn) [Compound 40] yielded a melting point of 127.1 to 131.4 °C. The IC50 at hα2A receptor is 15.8 nM. Also, the IC50 on hα2C receptor is 10 nM. This compound showed an IC50 on h5-HT transporter of 50.1 nM.
With `COc1cc2c(cc1NCCN1CCCC1)OCC1C2=NOC1CN1CCN(CC(C)=Cc2ccccc2)CC1` (stereo not drawn) [Compound 26], the melting point lay in the range of 120.4 to 123 °C. Also, the IC50 on hα2A receptor was 5.01 nM. Besides, the IC50 on hα2C receptor is less than 1 nM. The IC50 on h5-HT transporter is 3.16 nM.
Compound `CCOC(=O)CNC(=O)Nc1ccc2c(c1)OCC1C2=NOC1CN1CCN(CC(C)=Cc2ccccc2)CC1` (stereo not drawn) [Compound 63] showed a melting point of 175.3 to 177 °C. Besides, on hα2A receptor, the IC50 is 7.94 nM. Also, at hα2C receptor, the IC50 was 1.58 nM. The IC50 at h5-HT transporter was 31.6 nM.
In the case of `C/C(=C\c1ccccc1)CN1CCN(CC2ON=C3c4ccc(N)cc4OCC32)CC1` (stereo not drawn) [Compound 5], the melting point lay in the range of 134.1 to 136.2 °C. The IC50 on hα2A receptor is 2.51 nM. The IC50 at hα2C receptor was 3.98 nM. On h5-HT transporter, this compound showed an IC50 of 100 nM.
The like results for `COc1cc2c(cc1NCCN(C)C)OCC1C2=NOC1CN1CCN(CC(C)=Cc2ccc(F)cc2)CC1` (stereo not drawn) [Compound 24] were, in that order, 157.7 to 159.9 °C, 25.1 nM, 1.58 nM and 5.01 nM.
In the same order, the values of `COc1cc2c(cc1NCCN(C)C)OCC1C2=NOC1CN1CCN(C/C(C)=C/c2ccccc2)CC1` (stereo not drawn) [Compound 9] are 154.5 to 157.9 °C, 5.01 nM, 1000 nM and 5.01 nM.
Consider `CC(=Cc1ccccc1)CN1CCN(CC2ON=C3c4ccc(NC(=O)Nc5cccc(F)c5)cc4OCC32)CC1` (stereo not drawn) [Compound 65], for which the melting point is 186.8 to 188.5 °C. For the same compound, on hα2A receptor, the IC50 was 79.4 nM. The IC50 at hα2C receptor is 31.6 nM. This compound also had an IC50 at h5-HT transporter of 1580 nM.
`CC(=Cc1ccc(F)cc1)CN1CCN(CC2ON=C3c4ccc(N5CCN(C)CC5)cc4OCC32)CC1` (stereo not drawn) [Compound 77]: the melting point was in the range of 147.3 to 150.6 °C. The IC50 on hα2A receptor is 39.8 nM. Also, the IC50 at hα2C receptor was 2.51 nM. At h5-HT transporter, this compound gave an IC50 of 3.16 nM.
The like results for `CC(=Cc1ccc(F)cc1)CN1CCN(CC2ON=C3c4ccc(N5CCN(Cc6ccccc6)CC5)cc4OCC32)CC1` (stereo not drawn) [Compound 80] were, in that order, 166.4 to 178.2 °C, 126 nM, 3.98 nM and 126 nM.
The like results for `CC(=Cc1ccc(F)cc1)CN1CCN(CC2ON=C3c4ccc(N5CCCCC5)cc4OCC32)CC1` (stereo not drawn) [Compound 71] were, in that order, 168.2 to 169.4 °C, 63.1 nM, 6.31 nM and 100 nM.
The like results for `CC(=Cc1ccc(F)cc1)CN1CCN(CC2ON=C3c4ccc(N5CCCC5)cc4OCC32)CC1` (stereo not drawn) [Compound 70] were, in that order, 194.7 to 204.9 °C, 12.6 nM, 7.94 nM and 100 nM.
`C/C(=C\c1cccc(F)c1)CN1CCN(CC2ON=C3c4cc5c(cc4OCC32)NCCO5)CC1` (stereo not drawn) [Compound 89] gave a melting point of 145.4 to 153.1 °C. At hα2A receptor, the IC50 is 3.98 nM. For the same compound, at hα2C receptor, the IC50 was 1 nM. In addition, the IC50 at h5-HT transporter was 3.98 nM.
`COc1cc2c(cc1N1CCN(C)CC1)OCC1C2=NOC1CN1CCN(CC(C)=Cc2ccccc2)CC1` (stereo not drawn) [Compound 75]: the melting point was in the range of 142.8 to 144.4 °C. Moreover, on hα2A receptor, the IC50 is 1.58 nM. Besides, the IC50 at hα2C receptor is less than 1 nM. On h5-HT transporter, this compound gave an IC50 of 7.94 nM.
With `CCOC(=O)C1CCN(c2ccc3c(c2)OCC2C3=NOC2CN2CCN(CC(C)=Cc3ccc(F)cc3)CC2)CC1` (stereo not drawn) [Compound 72], the melting point lay within 156.4 to 161 °C. The IC50 on hα2A receptor is 100 nM. Further, the IC50 on hα2C receptor is 20 nM. Also, the IC50 on h5-HT transporter is 631 nM.
Regarding `CC(=Cc1ccccc1)CN1CCN(CC2ON=C3c4ccc(NC(=O)C(C)(C)C)cc4OCC32)CC1` (stereo not drawn) [Compound 50], the melting point lay within 183.4 to 190.2 °C. Moreover, at hα2A receptor, the IC50 is 3.16 nM. Besides, the IC50 on hα2C receptor is 1 nM. This compound also showed an IC50 on h5-HT transporter of 15.8 nM.
On to `C/C(=C\CN1CCN(CC2ON=C3c4cc5c(cc4OCC32)NCCO5)CC1)c1ccccc1` (stereo not drawn) [Compound 91], for which the melting point was in the range of 130.4 to 146.4 °C. For the same compound, the IC50 at hα2A receptor was 6.31 nM. Moreover, on hα2C receptor, the IC50 is 1.58 nM. Besides, at h5-HT transporter, the IC50 is 31.6 nM.
In the same order, the values of `CC(=Cc1ccccc1)CN1CCN(CC2ON=C3c4ccc(Nc5ccc(F)cc5)cc4OCC32)CC1` (stereo not drawn) [Compound 42] are 130.8 to 134.1 °C, 31.6 nM, 15.8 nM and 126 nM.
In the case of `CC(=Cc1ccccc1)CN1CCN(CC2ON=C3c4ccc(NC(=O)NC(C)(C)C)cc4OCC32)CC1` (stereo not drawn) [Compound 61], the melting point is 98.4 to 113.5 °C. Further, the IC50 on hα2A receptor was 7.94 nM. The IC50 at hα2C receptor is 2 nM. The compound further had an IC50 at h5-HT transporter of 20 nM.
In turn, `C/C(=C\c1ccc(F)cc1)CN1CCN(CC2ON=C3c4ccc(NS(=O)(=O)c5ccc(C)cc5)cc4OCC32)CC1` (stereo not drawn) [Compound 3] yielded a melting point of 177 to 194.1 °C. For the same compound, at hα2A receptor, the IC50 was 79.4 nM. In addition, the IC50 on hα2C receptor was 31.6 nM. Besides, at h5-HT transporter, the IC50 is 39.8 nM.
In the case of `COc1ccc(NC(=O)Nc2ccc3c(c2)OCC2C3=NOC2CN2CCN(C/C(C)=C/c3ccccc3)CC2)cc1OC` (stereo not drawn) [Compound 7], the melting point lay within 202.2 to 207.1 °C. In addition, the IC50 at hα2A receptor is 15.8 nM. Moreover, at hα2C receptor, the IC50 was 5.01 nM. The IC50 at h5-HT transporter is 31.6 nM.
In the same order, the values of `COc1ccc(Nc2ccc3c(c2)OCC2C3=NOC2CN2CCN(CC(C)=Cc3ccc(F)cc3)CC2)cc1` (stereo not drawn) [Compound 43] are 131.7 to 134.5 °C, 398 nM, 126 nM and 631 nM.
In the same order, the values of `CC(=Cc1ccc(F)cc1)CN1CCN(CC2ON=C3c4ccc(N5CCN(CC=Cc6ccccc6)CC5)cc4OCC32)CC1` (stereo not drawn) [Compound 81] are 154.9 to 160.4 °C, 126 nM, 20 nM and 63.1 nM.
